Assay results from PMC7613998, “Development of selective inhibitors of phosphatidylinositol 3-kinase C2α” (Nature Chemical Biology, 2022).

Legend:
Assay in all cases: biochemical
Set-up in all cases: SelectScreen LanthaScreen kinase binding assay, per cent tracer displacement, mean of two points
Conditions in all cases: tracer displacement
CDK9/cyclin K = CDK9/cyclin K (Homo sapiens, UniProt P50750)
TNIK = TNIK (Homo sapiens, UniProt Q9UKE5)
MAP2K2 (MEK2) = MAP2K2 (MEK2) (Homo sapiens, UniProt P36507)
CAMKK2 (CaMKK beta) = CAMKK2 (CaMKK beta) (Homo sapiens, UniProt Q96RR4)
[1] = target: T1, MAP3K7/MAP3K7IP1 (TAK1-TAB1) (Homo sapiens, UniProt O43318)
T1 construct: TAK1-TAB1
T1 sequence (O43318 1-606): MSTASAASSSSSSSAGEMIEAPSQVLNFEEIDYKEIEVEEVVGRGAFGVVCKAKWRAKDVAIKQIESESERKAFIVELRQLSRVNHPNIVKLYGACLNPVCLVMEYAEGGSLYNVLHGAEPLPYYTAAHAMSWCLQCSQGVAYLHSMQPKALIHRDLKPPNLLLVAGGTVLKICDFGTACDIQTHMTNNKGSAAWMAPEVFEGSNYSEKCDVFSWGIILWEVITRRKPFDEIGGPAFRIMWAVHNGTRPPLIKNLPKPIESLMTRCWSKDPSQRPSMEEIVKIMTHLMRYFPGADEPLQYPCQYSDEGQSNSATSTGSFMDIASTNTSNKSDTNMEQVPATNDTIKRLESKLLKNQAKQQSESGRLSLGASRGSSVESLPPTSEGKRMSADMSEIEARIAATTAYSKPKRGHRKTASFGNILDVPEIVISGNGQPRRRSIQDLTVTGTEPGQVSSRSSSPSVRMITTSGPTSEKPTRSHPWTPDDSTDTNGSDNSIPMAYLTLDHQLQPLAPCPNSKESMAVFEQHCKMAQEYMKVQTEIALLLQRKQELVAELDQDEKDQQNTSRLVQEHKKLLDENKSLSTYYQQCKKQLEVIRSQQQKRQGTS
T1 sequence (Q15750 1-504 partner): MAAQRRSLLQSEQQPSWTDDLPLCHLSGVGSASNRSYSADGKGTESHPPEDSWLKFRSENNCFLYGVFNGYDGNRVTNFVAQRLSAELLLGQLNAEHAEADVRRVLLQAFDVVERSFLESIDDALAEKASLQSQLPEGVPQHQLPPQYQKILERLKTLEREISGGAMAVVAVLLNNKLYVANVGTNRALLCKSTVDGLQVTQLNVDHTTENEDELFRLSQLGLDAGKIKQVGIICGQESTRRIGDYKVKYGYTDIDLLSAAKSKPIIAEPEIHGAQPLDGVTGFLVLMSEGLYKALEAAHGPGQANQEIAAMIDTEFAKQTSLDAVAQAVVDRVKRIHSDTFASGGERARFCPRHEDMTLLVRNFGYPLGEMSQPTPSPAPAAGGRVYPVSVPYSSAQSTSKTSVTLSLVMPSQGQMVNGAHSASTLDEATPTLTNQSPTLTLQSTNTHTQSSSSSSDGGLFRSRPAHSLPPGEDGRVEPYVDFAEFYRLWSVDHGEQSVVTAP

STK17B (DRAK2) = target: T2, STK17B (DRAK2) (Homo sapiens, UniProt O94768)
T2 sequence (O94768 1-372): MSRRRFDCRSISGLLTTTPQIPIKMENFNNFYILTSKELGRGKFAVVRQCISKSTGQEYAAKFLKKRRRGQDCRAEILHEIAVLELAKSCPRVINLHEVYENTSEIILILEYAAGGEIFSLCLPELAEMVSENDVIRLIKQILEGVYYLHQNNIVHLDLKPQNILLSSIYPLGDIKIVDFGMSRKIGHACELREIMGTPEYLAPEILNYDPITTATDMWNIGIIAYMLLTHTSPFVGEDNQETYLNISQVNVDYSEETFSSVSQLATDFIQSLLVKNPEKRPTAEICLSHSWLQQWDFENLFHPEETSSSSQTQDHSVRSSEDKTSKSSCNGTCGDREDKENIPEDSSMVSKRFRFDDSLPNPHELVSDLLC

Chain of CDK9/cyclin K (P50750 whole entry): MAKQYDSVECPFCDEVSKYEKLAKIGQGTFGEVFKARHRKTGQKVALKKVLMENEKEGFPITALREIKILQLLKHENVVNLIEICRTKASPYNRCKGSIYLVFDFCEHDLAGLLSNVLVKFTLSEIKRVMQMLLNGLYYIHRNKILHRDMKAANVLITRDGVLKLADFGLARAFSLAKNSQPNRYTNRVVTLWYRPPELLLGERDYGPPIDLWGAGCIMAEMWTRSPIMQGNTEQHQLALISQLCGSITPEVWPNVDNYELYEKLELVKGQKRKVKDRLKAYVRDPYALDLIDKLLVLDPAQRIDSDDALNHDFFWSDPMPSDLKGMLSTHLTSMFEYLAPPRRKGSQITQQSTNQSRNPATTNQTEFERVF
Chain of CDK9/cyclin K (O75909 whole entry partner): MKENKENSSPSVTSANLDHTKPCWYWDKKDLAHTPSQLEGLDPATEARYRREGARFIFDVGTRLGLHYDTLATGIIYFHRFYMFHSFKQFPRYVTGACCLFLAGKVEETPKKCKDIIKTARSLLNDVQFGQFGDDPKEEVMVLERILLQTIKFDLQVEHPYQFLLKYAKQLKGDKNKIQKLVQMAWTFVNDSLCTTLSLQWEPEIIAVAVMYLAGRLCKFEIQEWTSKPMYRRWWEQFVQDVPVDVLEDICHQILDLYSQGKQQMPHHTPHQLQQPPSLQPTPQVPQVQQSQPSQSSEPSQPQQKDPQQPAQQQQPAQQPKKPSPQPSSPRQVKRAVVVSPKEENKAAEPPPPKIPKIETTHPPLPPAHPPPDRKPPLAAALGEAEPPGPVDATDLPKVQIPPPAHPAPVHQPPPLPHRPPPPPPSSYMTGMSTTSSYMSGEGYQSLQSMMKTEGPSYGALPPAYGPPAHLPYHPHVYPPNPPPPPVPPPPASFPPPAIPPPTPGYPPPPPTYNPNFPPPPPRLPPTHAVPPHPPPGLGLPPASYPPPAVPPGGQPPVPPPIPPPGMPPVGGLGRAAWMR
Chain of TNIK (Q9UKE5 whole entry): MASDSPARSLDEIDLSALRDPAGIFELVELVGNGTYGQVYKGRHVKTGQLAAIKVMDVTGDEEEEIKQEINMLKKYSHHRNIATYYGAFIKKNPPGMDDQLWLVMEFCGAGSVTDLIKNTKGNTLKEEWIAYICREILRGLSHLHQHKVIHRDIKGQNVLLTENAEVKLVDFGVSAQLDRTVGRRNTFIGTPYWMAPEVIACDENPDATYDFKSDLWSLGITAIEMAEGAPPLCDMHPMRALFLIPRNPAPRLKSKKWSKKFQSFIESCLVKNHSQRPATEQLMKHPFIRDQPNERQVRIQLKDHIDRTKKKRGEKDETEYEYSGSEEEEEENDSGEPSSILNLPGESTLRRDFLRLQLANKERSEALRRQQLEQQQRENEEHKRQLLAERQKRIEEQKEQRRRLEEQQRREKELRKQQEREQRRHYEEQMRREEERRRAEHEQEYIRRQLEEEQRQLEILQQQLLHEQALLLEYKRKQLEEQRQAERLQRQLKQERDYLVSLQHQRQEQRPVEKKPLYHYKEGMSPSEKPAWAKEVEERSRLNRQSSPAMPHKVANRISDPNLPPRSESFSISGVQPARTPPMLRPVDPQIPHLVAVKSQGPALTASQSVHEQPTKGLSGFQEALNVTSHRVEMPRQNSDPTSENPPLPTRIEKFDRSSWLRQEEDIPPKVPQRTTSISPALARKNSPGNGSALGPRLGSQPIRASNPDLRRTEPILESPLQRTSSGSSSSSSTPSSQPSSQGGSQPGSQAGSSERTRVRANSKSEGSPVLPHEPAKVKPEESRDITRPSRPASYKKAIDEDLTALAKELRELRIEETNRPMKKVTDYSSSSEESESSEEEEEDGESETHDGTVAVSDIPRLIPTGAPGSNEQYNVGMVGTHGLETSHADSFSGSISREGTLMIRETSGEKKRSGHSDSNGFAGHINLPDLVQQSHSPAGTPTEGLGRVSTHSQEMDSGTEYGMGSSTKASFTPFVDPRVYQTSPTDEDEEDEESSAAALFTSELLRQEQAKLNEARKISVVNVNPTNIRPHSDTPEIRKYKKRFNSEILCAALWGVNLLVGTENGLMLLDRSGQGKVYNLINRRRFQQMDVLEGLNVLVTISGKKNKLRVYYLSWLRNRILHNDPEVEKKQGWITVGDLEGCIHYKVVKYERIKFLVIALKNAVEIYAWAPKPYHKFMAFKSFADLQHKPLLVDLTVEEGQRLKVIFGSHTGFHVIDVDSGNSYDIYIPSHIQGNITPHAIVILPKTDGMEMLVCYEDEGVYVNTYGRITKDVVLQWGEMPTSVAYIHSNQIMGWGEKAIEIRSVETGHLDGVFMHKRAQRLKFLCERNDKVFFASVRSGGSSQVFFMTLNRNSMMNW
Chain of CAMKK2 (CaMKK beta) (Q96RR4 whole entry): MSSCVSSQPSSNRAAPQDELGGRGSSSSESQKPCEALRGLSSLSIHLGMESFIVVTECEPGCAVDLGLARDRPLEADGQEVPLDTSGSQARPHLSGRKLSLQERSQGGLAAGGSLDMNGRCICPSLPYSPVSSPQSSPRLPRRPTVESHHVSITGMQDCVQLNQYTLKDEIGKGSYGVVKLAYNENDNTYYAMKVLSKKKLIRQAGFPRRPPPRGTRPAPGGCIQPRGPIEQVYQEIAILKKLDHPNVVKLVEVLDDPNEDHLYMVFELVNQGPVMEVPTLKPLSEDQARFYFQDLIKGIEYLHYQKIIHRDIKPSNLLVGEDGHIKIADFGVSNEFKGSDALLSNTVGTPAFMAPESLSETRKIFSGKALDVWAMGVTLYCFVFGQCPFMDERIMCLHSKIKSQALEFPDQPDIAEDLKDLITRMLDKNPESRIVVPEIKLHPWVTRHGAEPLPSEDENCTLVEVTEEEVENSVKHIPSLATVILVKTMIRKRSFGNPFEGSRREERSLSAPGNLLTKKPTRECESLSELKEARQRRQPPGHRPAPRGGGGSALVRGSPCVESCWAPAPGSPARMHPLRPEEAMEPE
Chain of MAP2K2 (MEK2) (P36507 whole entry): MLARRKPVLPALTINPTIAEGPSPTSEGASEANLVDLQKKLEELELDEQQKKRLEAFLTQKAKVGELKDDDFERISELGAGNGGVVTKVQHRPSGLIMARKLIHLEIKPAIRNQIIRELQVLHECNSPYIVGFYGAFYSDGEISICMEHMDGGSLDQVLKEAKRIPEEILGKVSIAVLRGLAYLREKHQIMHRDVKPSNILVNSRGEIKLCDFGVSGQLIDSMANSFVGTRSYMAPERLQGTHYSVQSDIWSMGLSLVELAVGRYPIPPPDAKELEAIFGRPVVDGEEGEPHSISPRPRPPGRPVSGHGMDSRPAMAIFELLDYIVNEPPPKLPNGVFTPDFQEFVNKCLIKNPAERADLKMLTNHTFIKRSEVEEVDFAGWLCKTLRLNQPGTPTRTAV

Row | inhibition at 1 µM (CDK9/cyclin K) | inhibition at 3 µM (CDK9/cyclin K) | inhibition at 10 µM (CDK9/cyclin K) | inhibition at 1 µM (TNIK) | inhibition at 3 µM (TNIK) | inhibition at 10 µM (TNIK) | inhibition at 1 µM (MAP2K2 (MEK2)) | inhibition at 3 µM (MAP2K2 (MEK2)) | inhibition at 10 µM (MAP2K2 (MEK2)) | inhibition at 1 µM (CAMKK2 (CaMKK beta)) | inhibition at 3 µM (CAMKK2 (CaMKK beta)) | inhibition at 10 µM (CAMKK2 (CaMKK beta)) | inhibition at 1 µM [1] | inhibition at 3 µM [1] | inhibition at 10 µM [1] | inhibition at 1 µM (STK17B (DRAK2)) | inhibition at 3 µM (STK17B (DRAK2)) | inhibition at 10 µM (STK17B (DRAK2)) | Compound
1 | -2.66% | -5.46% | -1.18% | -4.88% | -3.23% | -2.09% | -3% | 2.42% | -1.45% | -0.673% | -0.395% | 3.84% | -3.93% | -9.87% | -11.5% | -6.01% | 2.55% | 4.06% | O=C(CSc1nc2nccnc2c(=O)n1CCc1ccccc1)Nc1nccs1 [compound 1, PITCOIN1]
2 | 0.179% | -3.08% | -7.54% | 4.57% | 2.17% | -4.46% | 0.637% | 2.82% | -3.31% | 2.3% | 4.67% | 4.93% | -2.55% | -10.1% | -10.1% | -7.55% | -5.4% | 11.1% | CS(=O)(=O)Nc1cccc(-c2csc(NC(=O)CSc3nc4nccnc4c(=O)n3CCc3ccccc3)n2)c1 [compound 3, PITCOIN3]
